Assay results: ChEMBL document CHEMBL1201862, “PubChem BioAssay data set” (2004)
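Tested at 5 concentrations; 48 h exposure; 96-well plates; endpoints linearly interpolated, else capped at highest concentration. Abbreviation: GI50, concentration required for 50% inhibition of growth.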 Activity calls are given as the source filed them. Cut-off read from the data, not from the text of the source: active = GI50 up to about 1.1 µM and inactive = higher. Residues, ends and D or L forms follow the SMILES beside them. *: point of attachment. Boc = CC(C)(C)OC(=O)*; OBn = c1ccc(CO*)cc1

Experiments:
Assay in all cases: inhibition of tumour cell growth, NCI panel, 48 h
[1] = system: HOP-62
[2] = system: HCT-116
[3] = system: NCI-H460
[4] = system: SK-MEL-5
[5] = system: OVCAR-3
[6] = system: COLO 205
[7] = system: TK-10
[8] = system: A498
[9] = system: SK-OV-3
[10] = system: SNB-19
[11] = system: NCI-H522
[12] = system: UO-31
[13] = system: UACC-257
[14] = system: LOX IMVI
[15] = system: T47D
[16] = system: OVCAR-4
[17] = system: CAKI-1
[18] = system: HL-60
[19] = system: RPMI-8226

SMILES	GI50 [1]	GI50 [2]	GI50 [3]	GI50 [4]	GI50 [5]	GI50 [6]	GI50 [7]	GI50 [8]	GI50 [9]	GI50 [10]	GI50 [11]	GI50 [12]	GI50 [13]	GI50 [14]	GI50 [15]	GI50 [16]	GI50 [17]	GI50 [18]	GI50 [19]
N#[N+]c1cc2c(cc1Br)-c1ccccc1C2	> 100 µM (inactive)	> 100 µM (inactive)	> 100 µM (inactive)	48.5 µM (inactive)	46.9 µM (inactive)	> 100 µM (inactive)	47.1 µM (inactive)	> 100 µM (inactive)	> 100 µM (inactive)	71.3 µM (inactive)	58.2 µM (inactive)	> 100 µM (inactive)	23.5 µM (inactive)	91.6 µM (inactive)	> 100 µM (inactive)	> 100 µM (inactive)	97.5 µM (inactive)	51.4 µM (inactive)	–
CCOC(CBr)OC1C(=O)OCC1(C)C (centres undefined)	> 100 µM (inactive)	> 100 µM (inactive)	> 100 µM (inactive)	> 100 µM (inactive)	–	> 100 µM (inactive)	> 100 µM (inactive)	> 100 µM (inactive)	> 100 µM (inactive)	> 100 µM (inactive)	> 100 µM (inactive)	> 100 µM (inactive)	> 100 µM (inactive)	> 100 µM (inactive)	> 100 µM (inactive)	> 100 µM (inactive)	> 100 µM (inactive)	> 100 µM (inactive)	> 100 µM (inactive)
CC[P+](C#Cc1ccccc1)(c1ccccc1)c1ccccc1	2.44 µM (inactive)	1.77 µM (inactive)	3 µM (inactive)	1.22 µM (inactive)	1.31 µM (inactive)	1.06 µM (active)	1.58 µM (inactive)	8.17 µM (inactive)	2.93 µM (inactive)	5.92 µM (inactive)	1.36 µM (inactive)	6.93 µM (inactive)	1.21 µM (inactive)	1.82 µM (inactive)	2.18 µM (inactive)	3.15 µM (inactive)	9.66 µM (inactive)	0.324 µM (active)	0.242 µM (active)
Nc1nc(Cl)c2ncn(Cc3ccccc3CCl)c2n1	21.6 µM (inactive)	3.95 µM (inactive)	5.66 µM (inactive)	8.55 µM (inactive)	3.37 µM (inactive)	5.05 µM (inactive)	17.7 µM (inactive)	20.5 µM (inactive)	15.3 µM (inactive)	6.05 µM (inactive)	2.98 µM (inactive)	15.7 µM (inactive)	13.1 µM (inactive)	3.92 µM (inactive)	24.2 µM (inactive)	2.48 µM (inactive)	6.65 µM (inactive)	3.72 µM (inactive)	11.3 µM (inactive)
Oc1ccc[n+](Cc2ccccc2)c1	> 100 µM (inactive)	> 100 µM (inactive)	> 100 µM (inactive)	> 100 µM (inactive)	> 100 µM (inactive)	> 100 µM (inactive)	> 100 µM (inactive)	> 100 µM (inactive)	> 100 µM (inactive)	> 100 µM (inactive)	> 100 µM (inactive)	> 100 µM (inactive)	> 100 µM (inactive)	> 100 µM (inactive)	> 100 µM (inactive)	–	> 100 µM (inactive)	> 100 µM (inactive)	> 100 µM (inactive)
CN(C)CCCn1c(Cn2nc3ccccc3n2)nc2cc(C(F)(F)F)ccc21	64.4 µM (inactive)	36 µM (inactive)	26.4 µM (inactive)	16.6 µM (inactive)	36.7 µM (inactive)	15.3 µM (inactive)	24 µM (inactive)	17.2 µM (inactive)	16.9 µM (inactive)	50.7 µM (inactive)	14.6 µM (inactive)	10.5 µM (inactive)	16.8 µM (inactive)	16.9 µM (inactive)	15.2 µM (inactive)	33.4 µM (inactive)	32.6 µM (inactive)	1.69 µM (inactive)	–
O=c1ccn2n1Cc1ccccc1C2	> 100 µM (inactive)	> 100 µM (inactive)	> 100 µM (inactive)	> 100 µM (inactive)	> 100 µM (inactive)	> 100 µM (inactive)	> 100 µM (inactive)	> 100 µM (inactive)	> 100 µM (inactive)	> 100 µM (inactive)	> 100 µM (inactive)	79.8 µM (inactive)	> 100 µM (inactive)	> 100 µM (inactive)	> 100 µM (inactive)	> 100 µM (inactive)	> 100 µM (inactive)	> 100 µM (inactive)	> 100 µM (inactive)
CC1=C2CC(C)(C)/C=C\C(=O)/C(C)=C\C3=C[C@H](C)C[C@]3(O2)C1=O	6.43 µM (inactive)	0.443 µM (active)	4.71 µM (inactive)	1.48 µM (inactive)	0.376 µM (active)	0.902 µM (active)	2.03 µM (inactive)	4.67 µM (inactive)	9.51 µM (inactive)	17.2 µM (inactive)	0.201 µM (active)	1.18 µM (inactive)	1.14 µM (inactive)	0.741 µM (active)	0.544 µM (active)	1.52 µM (inactive)	0.255 µM (active)	0.139 µM (active)	0.326 µM (active)
CCOC(=O)NC(Nc1c(F)c(F)c(F)c(F)c1F)(C(F)(F)F)C(F)(F)F	> 100 µM (inactive)	> 100 µM (inactive)	> 100 µM (inactive)	> 100 µM (inactive)	> 100 µM (inactive)	> 100 µM (inactive)	> 100 µM (inactive)	> 100 µM (inactive)	> 100 µM (inactive)	> 100 µM (inactive)	> 100 µM (inactive)	> 100 µM (inactive)	> 100 µM (inactive)	> 100 µM (inactive)	> 100 µM (inactive)	–	> 100 µM (inactive)	> 100 µM (inactive)	> 100 µM (inactive)
CC(C)(CCC(C)(C)c1ccccc1)c1ccccc1	17.4 µM (inactive)	14.7 µM (inactive)	17.2 µM (inactive)	14.4 µM (inactive)	16.3 µM (inactive)	18.1 µM (inactive)	21.6 µM (inactive)	17.9 µM (inactive)	27.1 µM (inactive)	18.3 µM (inactive)	15.7 µM (inactive)	–	14.3 µM (inactive)	17.5 µM (inactive)	16.7 µM (inactive)	16.4 µM (inactive)	22.5 µM (inactive)	16.3 µM (inactive)	15.1 µM (inactive)
CC(=O)OCC1OC(O[C@@H]2C[C@H]3C(C)(C)[C@H](OC(C)=O)CC[C@]3(C)[C@H]3CC[C@]4(C)C(=CC[C@H]4[C@@H](C)C[C@@H](O)[C@H](O)C(C)(C)O)[C@@]32C)C(O)C(O)C1O (some centres undefined)	15.8 µM (inactive)	14.4 µM (inactive)	17.5 µM (inactive)	–	15.4 µM (inactive)	14 µM (inactive)	17 µM (inactive)	19.9 µM (inactive)	18.5 µM (inactive)	15.1 µM (inactive)	1.67 µM (inactive)	17.4 µM (inactive)	19 µM (inactive)	16.2 µM (inactive)	16.7 µM (inactive)	16 µM (inactive)	14.2 µM (inactive)	15.7 µM (inactive)	12.2 µM (inactive)
N#CCN(Cc1ccccc1)[C@@H]1CCC[C@]1(O)C#Cc1ccc2c(c1)OCO2	16.2 µM (inactive)	–	16.1 µM (inactive)	16.4 µM (inactive)	14.9 µM (inactive)	17.4 µM (inactive)	21.1 µM (inactive)	20.3 µM (inactive)	25.8 µM (inactive)	20.7 µM (inactive)	16.1 µM (inactive)	28.2 µM (inactive)	18.8 µM (inactive)	15.9 µM (inactive)	16.6 µM (inactive)	15 µM (inactive)	22.2 µM (inactive)	20.6 µM (inactive)	16 µM (inactive)
CCOC(=O)c1sc2nc(SC)nc(Nc3ccc4c(c3)OCCCO4)c2c1N	20.1 µM (inactive)	67.1 µM (inactive)	–	3.29 µM (inactive)	16.5 µM (inactive)	41.5 µM (inactive)	40.6 µM (inactive)	26.7 µM (inactive)	55.6 µM (inactive)	> 100 µM (inactive)	3.3 µM (inactive)	85.1 µM (inactive)	7.82 µM (inactive)	34.8 µM (inactive)	2.14 µM (inactive)	5.47 µM (inactive)	> 100 µM (inactive)	> 100 µM (inactive)	4.25 µM (inactive)
CC(C)CC(NC(=O)OC(C)(C)C)C(=O)NC(CC(=O)OCc1ccccc1)C(=O)OCc1ccccc1 (stereo not drawn) (Boc-Leu-Asp(OBn)-OBn; configuration not given here)	> 100 µM (inactive)	30.7 µM (inactive)	30.8 µM (inactive)	24.7 µM (inactive)	22.4 µM (inactive)	43.2 µM (inactive)	21.3 µM (inactive)	> 100 µM (inactive)	> 100 µM (inactive)	29.4 µM (inactive)	27.9 µM (inactive)	27 µM (inactive)	32.9 µM (inactive)	22.8 µM (inactive)	> 100 µM (inactive)	–	> 100 µM (inactive)	26.1 µM (inactive)	27.8 µM (inactive)
COC(=O)c1cc(/C=C2\Cc3cc4c(cc3C2=O)CCC4)cc2c1CCC2	> 100 µM (inactive)	63 µM (inactive)	> 100 µM (inactive)	–	> 100 µM (inactive)	> 100 µM (inactive)	> 100 µM (inactive)	> 100 µM (inactive)	> 100 µM (inactive)	> 100 µM (inactive)	> 100 µM (inactive)	> 100 µM (inactive)	> 100 µM (inactive)	> 100 µM (inactive)	> 100 µM (inactive)	41.3 µM (inactive)	> 100 µM (inactive)	> 100 µM (inactive)	> 100 µM (inactive)
